Measurements published in patent US10414769B2, “5,8-dimethyl-9-phenyl-5,8-dihydro-6H-pyrazolo[3,4-h]quinazolin-2-yl)-(1H-pyrazol-3-yl)-amines as IGF-1R/IR inhibitors” (Boehringer Ingelheim International GmbH, priority 2015, dated 2019).

Columns and labels:
Assay type in all cases: biochemical
MAP3K8 (COT) = target: T1, MAP3K8 (COT) (Homo sapiens, UniProt P41279); assay: Z'-LYTE kinase selectivity assay MAP3K8
T1 construct: purchased Life Technologies PV 4313
From the text: (§1) In order to compare the kinase selectivity of compounds (I) according to the invention with known prior art compounds the commercially provided SelectScreen® Kinase Profiling Service (Z′-LYTE®) was used (Life Technologies GmbH, Darmstadt, Germany) to investigate the ability of the compounds to inhibit a number of different, representatively selected human kinases. Further details regarding this service are available on the Life Technologies website at
(§2) The Z′-LYTE® biochemical assay employs a fluorescence-based, coupled-enzyme format and is based on the differential sensitivity of phosphorylated and non-phosphorylated peptides to proteolytic cleavage. The peptide substrate is labeled with two fluorophores—one at each end—that make up a FRET pair.
(§3) In the primary reaction, the kinase transfers the gamma-phosphate of ATP to a single tyrosine, serine or threonine residue in a synthetic FRET-peptide. In the secondary reaction, a site-specific protease recognizes and cleaves non-phosphorylated FRET-peptides. Phosphorylation of FRET-peptides suppresses cleavage by the Development Reagent. Cleavage disrupts FRET between the donor (i.e., coumarin) and acceptor (i.e., fluorescein) fluorophores on the FRET-peptide, whereas uncleaved, phosphorylated FRET-peptides maintain FRET. A ratiometric method, which calculates the ratio (the Emission Ratio) of donor emission to acceptor emission after excitation of the donor fluorophore at 400 nm, is used to quantitate reaction progress, as shown in the equation below.
(§4) The Test Compounds are screened at 1 μM.
After the 1 hour Kinase Reaction incubation, 5 μL of a 1:1024 dilution of Development Reagent A is added.

PAK4 = target: T2, PAK4 (Homo sapiens, UniProt O96013); assay: Z'-LYTE kinase selectivity assay PAK4
T2 construct: purchased Life Technologies PV 4212
T2 sequence (O96013 whole entry): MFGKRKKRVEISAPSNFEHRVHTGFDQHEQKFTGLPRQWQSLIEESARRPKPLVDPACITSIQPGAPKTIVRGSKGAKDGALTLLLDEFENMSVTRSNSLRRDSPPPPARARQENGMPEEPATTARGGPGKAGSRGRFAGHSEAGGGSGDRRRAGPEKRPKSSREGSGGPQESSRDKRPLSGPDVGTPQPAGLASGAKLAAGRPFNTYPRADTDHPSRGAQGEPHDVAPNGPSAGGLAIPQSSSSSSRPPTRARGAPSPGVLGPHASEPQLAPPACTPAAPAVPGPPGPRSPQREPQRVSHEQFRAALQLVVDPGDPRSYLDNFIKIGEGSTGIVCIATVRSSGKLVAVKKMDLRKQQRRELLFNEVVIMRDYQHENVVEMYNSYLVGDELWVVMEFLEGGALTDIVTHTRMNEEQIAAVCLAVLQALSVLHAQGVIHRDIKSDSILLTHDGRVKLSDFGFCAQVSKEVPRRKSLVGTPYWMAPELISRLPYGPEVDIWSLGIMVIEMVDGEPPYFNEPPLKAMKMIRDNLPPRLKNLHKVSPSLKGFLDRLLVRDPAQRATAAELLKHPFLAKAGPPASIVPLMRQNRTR
From the text: as §1, §2, §3, §4
The 2×PAK4 (# PV 4212)/Ser/Thr 20 (Z′-LYTE® Kinase Assay Kit—Ser/Thr 20 Peptide, # PV 4532) mixture is prepared in 50 mM HEPES pH 7.5, 0.01% BRIJ-35, 10 mM MgCl2, 1 mM EGTA. The final 10 μL Kinase Reaction consists of 0.1-0.75 ng PAK4 and 2 μM Ser/Thr 20 in 50 mM HEPES pH 7.5, 0.01% BRIJ-35, 10 mM MgCl2, 1 mM EGTA. After the 1 hour Kinase Reaction incubation, 5 μL of a 1:512 dilution of Development Reagent A is added.

GSK3B (GSK3 beta) = target: T3, GSK3B (GSK3 beta) (Homo sapiens, UniProt P49841); assay: Z'-LYTE kinase selectivity assay GSK3B
T3 construct: purchased Life Technologies PV 3365
T3 sequence (P49841 whole entry): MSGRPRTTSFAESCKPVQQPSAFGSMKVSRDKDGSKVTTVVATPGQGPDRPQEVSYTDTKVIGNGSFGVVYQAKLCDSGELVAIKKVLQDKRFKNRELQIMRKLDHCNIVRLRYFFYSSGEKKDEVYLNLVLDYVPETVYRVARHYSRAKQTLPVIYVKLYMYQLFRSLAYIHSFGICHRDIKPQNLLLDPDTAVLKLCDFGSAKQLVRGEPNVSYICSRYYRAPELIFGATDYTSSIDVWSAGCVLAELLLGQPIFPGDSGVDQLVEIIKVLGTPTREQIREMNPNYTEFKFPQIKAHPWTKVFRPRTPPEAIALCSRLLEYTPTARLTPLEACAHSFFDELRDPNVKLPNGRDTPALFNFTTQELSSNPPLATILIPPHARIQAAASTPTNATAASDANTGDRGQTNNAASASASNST
From the text: as §1, §2, §3, §4
The 2×GSK3B (GSK3 beta) (# PV 3365)/Ser/Thr 09 (Z′-LYTE® Kinase Assay Kit—Ser/Thr 9 Peptide, # PV 3324) mixture is prepared in 50 mM HEPES pH 7.5, 0.01% BRIJ-35, 10 mM MgCl2, 1 mM EGTA. The final 10 μL Kinase Reaction consists of 0.17-0.88 ng GSK3B (GSK3 beta) and 2 μM Ser/Thr 09 in 50 mM HEPES pH 7.5, 0.01% BRIJ-35, 10 mM MgCl2, 1 mM EGTA. After the 1 hour Kinase Reaction incubation, 5 μL of a 1:512 dilution of Development Reagent A is added.

SRPK2 = target: T4, SRPK2 (Homo sapiens, UniProt P78362); assay: Z'-LYTE kinase selectivity assay SRPK2
T4 construct: purchased Life Technologies PV 3829
T4 sequence (P78362 whole entry): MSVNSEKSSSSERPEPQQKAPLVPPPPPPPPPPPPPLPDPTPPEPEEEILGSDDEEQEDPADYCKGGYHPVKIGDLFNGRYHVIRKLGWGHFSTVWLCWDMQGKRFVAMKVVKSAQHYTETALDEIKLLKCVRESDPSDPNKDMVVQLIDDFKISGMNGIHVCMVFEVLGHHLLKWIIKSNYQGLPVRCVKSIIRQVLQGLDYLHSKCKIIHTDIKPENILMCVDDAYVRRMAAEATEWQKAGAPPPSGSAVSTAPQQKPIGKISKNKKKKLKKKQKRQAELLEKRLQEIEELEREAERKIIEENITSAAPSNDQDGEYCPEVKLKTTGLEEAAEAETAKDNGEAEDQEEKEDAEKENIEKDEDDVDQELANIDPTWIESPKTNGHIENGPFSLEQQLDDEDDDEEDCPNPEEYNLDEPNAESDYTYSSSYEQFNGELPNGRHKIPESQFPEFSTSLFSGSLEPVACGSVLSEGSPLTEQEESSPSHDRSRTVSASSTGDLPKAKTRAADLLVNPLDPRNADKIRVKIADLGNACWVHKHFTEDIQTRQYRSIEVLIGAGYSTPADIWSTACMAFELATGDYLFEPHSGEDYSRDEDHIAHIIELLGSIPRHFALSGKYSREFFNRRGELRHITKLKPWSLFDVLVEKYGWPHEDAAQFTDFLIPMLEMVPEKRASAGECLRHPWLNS
From the text: as §1, §2, §3, §4
The 2×SRPK2 (# PV 3829)/Ser/Thr 07 (Z′-LYTE® Kinase Assay Kit—Ser/Thr 7 Peptide, # PV 3180) mixture is prepared in 50 mM HEPES pH 7.5, 0.01% BRIJ-35, 10 mM MgCl2, 1 mM EGTA. The final 10 μL Kinase Reaction consists of 3.76-52 ng SRPK2 and 2 μM Ser/Thr 07 in 50 mM HEPES pH 7.5, 0.01% BRIJ-35, 10 mM MgCl2, 1 mM EGTA. After the 1 hour Kinase Reaction incubation, 5 μL of a 1:65000 dilution of Development Reagent A is added.

ROCK2 = target: T5, ROCK2 (Homo sapiens, UniProt O75116); assay: Z'-LYTE kinase selectivity assay ROCK2
T5 construct: purchased Life Technologies PV 3759
T5 sequence (O75116 whole entry): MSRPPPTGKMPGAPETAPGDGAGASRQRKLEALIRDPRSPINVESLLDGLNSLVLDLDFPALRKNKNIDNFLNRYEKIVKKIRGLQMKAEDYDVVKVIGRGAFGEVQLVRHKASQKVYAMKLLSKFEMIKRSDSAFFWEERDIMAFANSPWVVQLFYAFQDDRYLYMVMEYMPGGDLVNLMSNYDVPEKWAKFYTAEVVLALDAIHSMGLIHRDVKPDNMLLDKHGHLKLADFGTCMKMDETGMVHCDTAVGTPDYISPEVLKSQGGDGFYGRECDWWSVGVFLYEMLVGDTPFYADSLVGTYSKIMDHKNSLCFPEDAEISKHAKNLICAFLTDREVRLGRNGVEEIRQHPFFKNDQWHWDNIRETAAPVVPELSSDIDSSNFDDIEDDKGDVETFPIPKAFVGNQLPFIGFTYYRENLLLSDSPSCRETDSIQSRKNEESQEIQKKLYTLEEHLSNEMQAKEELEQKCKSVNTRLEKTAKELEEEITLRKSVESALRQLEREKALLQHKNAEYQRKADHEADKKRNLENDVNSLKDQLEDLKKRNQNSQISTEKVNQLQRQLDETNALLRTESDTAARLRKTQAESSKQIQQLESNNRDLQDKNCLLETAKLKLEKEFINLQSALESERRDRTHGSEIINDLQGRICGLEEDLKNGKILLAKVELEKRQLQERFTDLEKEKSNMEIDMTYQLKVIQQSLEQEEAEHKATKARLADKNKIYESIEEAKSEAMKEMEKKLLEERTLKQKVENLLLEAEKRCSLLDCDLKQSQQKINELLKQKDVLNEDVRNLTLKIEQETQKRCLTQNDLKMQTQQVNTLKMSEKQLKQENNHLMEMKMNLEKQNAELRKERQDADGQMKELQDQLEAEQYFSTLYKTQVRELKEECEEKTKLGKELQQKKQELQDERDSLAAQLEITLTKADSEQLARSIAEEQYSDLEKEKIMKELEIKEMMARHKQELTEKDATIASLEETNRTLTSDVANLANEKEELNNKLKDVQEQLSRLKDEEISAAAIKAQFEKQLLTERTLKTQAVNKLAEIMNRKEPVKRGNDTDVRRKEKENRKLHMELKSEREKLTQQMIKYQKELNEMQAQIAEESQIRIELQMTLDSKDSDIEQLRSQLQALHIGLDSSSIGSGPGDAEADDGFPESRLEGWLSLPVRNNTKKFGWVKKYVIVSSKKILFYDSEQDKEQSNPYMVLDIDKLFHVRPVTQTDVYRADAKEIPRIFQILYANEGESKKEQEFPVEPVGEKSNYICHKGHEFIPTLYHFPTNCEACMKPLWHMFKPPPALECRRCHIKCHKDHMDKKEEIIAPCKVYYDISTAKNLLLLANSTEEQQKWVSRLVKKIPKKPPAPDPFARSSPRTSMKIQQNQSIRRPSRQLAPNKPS
From the text: as §1, §2, §3, §4
The 2×ROCK2 (# PV 3759)/Ser/Thr 13 (Z′-LYTE® Kinase Assay Kit—Ser/Thr 13 Peptide, # PV 3793) mixture is prepared in 50 mM HEPES pH 7.5, 0.01% BRIJ-35, 10 mM MgCl2. 1 mM EGTA. The final 10 μL Kinase Reaction consists of 0.62-4.13 ng ROCK2 and 2 μM Ser/Thr 13 in 50 mM HEPES pH 7.5, 0.01% BRIJ-35, 10 mM MgCl2, 1 mM EGTA. After the 1 hour Kinase Reaction incubation, 5 μL of a 1:1024 dilution of Development Reagent A is added.

CSNK1A1 (CK1 alpha 1) = target: T6, CSNK1A1 (CK1 alpha 1) (Homo sapiens, UniProt P48729); assay: Z'-LYTE kinase selectivity assay CSNK1A1
T6 construct: purchased Life Technologies PV 3850
T6 sequence (P48729 whole entry): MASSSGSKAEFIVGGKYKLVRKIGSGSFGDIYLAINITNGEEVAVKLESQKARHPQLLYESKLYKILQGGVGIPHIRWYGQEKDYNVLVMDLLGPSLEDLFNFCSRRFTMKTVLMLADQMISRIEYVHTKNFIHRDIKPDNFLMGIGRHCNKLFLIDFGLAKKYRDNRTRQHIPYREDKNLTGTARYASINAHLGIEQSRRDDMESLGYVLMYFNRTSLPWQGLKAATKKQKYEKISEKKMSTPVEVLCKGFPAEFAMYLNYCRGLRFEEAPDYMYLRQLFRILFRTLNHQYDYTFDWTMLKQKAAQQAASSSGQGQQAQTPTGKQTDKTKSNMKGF
From the text: as §1, §2, §3, §4
The 2×CSNK1A1 (CK1 alpha 1) (# PV 3850)/Ser/Thr 11 (Z′-LYTE® Kinase Assay Kit—Ser/Thr 11 Peptide, # PV 3670) mixture is prepared in 50 mM HEPES pH 7.5, 0.01% BRIJ-35, 10 mM MgCl2, 1 mM EGTA, 2 mM DTT. The final 10 μL Kinase Reaction consists of 2.6-13.5 ng CSNK1A1 (CK1 alpha 1) and 2 μM Ser/Thr 11 in 50 mM HEPES pH 7.5, 0.01% BRIJ-35, 10 mM MgCl2, 1 mM EGTA, 1 mM DTT. After the 1 hour Kinase Reaction incubation, 5 μL of a 1:16 dilution of Development Reagent B is added.

T1 sequence (P41279 whole entry): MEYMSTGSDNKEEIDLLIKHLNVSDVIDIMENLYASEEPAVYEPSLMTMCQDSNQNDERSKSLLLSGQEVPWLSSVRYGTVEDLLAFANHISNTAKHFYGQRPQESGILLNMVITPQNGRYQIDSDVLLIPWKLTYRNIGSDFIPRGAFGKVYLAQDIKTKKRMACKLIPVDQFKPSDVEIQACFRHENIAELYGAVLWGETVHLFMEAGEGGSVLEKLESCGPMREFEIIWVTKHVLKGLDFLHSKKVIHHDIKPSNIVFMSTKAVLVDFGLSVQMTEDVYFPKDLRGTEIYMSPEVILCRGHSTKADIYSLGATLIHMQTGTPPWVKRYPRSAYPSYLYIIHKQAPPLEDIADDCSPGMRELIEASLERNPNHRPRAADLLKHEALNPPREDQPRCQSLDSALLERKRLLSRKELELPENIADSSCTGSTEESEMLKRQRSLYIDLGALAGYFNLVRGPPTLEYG

inhibition at 1 µM (MAP3K8 (COT)) [%]	inhibition at 1 µM (PAK4) [%]	inhibition at 1 µM (GSK3B (GSK3 beta)) [%]	inhibition at 1 µM (SRPK2) [%]	inhibition at 1 µM (ROCK2) [%]	inhibition at 1 µM (CSNK1A1 (CK1 alpha 1)) [%]	Compound
27	14	14	58	1	16	C[C@@H]1Cc2nn(C)c(-c3ccccc3)c2-c2nc(Nc3ccn(CCN4CCN(C)CC4)n3)ncc21 [Compound I-1]
57	24	10	79	6	49	C[C@@H]1Cc2nn(C)c(-c3ccccc3)c2-c2nc(Nc3ccn(CCN4CCOCC4)n3)ncc21 [Compound I-2]
45	39	9	49	7	37	C[C@@H]1Cc2nn(C)c(-c3ccccc3)c2-c2nc(Nc3ccn(CCN4CCN(CC(C)(C)O)CC4)n3)ncc21 [Compound I-3]
42	19	10	58	9	29	CC(O)CN1CCN(CCn2ccc(Nc3ncc4c(n3)-c3c(nn(C)c3-c3ccccc3)C[C@H]4C)n2)CC1 (stereo partly drawn) [Compound I-7]
38	21	14	48	7	38	C[C@@H]1Cc2nn(C)c(-c3ccccc3)c2-c2nc(Nc3ccn(CCN4CCN(CC(=O)OC5CCOCC5)CC4)n3)ncc21 [Compound I-8]
37	32	9	49	3	37	C[C@@H]1Cc2nn(C)c(-c3ccccc3)c2-c2nc(Nc3ccn(CCN4CCN(CC5CCCO5)CC4)n3)ncc21 (stereo partly drawn) [Compound I-9]
22	27	8	38	9	17	COCCN1CCN(CCn2ccc(Nc3ncc4c(n3)-c3c(nn(C)c3-c3ccccc3)C[C@H]4C)n2)CC1 [Compound I-11]
